The text below walks through data of US20060141022A1, “Soft capsule preparation” (priority 2002, published 2006).

Data set [1] is described as follows: Stability test of NIK-333 in sealed bottle (peroxide value). The class given is physicochemical. Conditions: 25° C., sealed bottle in aluminium bag. The protocol:
NIK-333 was filled in a sealed bottle and the bottle was put into an aluminium bag. This sample was stored at 25° C., and after 0, 1, and 3 months, the peroxide values were measured.

A further data set has as its system hepatoma. Particulars: one-year oral administration, patients after therapeutic treatment of hepatoma; cited from earlier work.

`CC(C)=CCC/C(C)=C/CC/C(C)=C/C=C/C(C)=C/C(=O)O` [NIK-333, (2E,4E,6E,10E )-3,7,11,15-Tetramethyl-2,4,6,10,14-hexadecapentaenoic acid] came in with a Peroxide value in data set [1] (storage period 0 month) of 0.4 meq/kg. In data set [1] (storage period 1 month), the Peroxide value amounted to 6.2 meq/kg. This compound also showed a Peroxide value in data set [1] (storage period 3 months) of 14.4 meq/kg. Besides, in the data set with hepatoma, the recurrence of hepatoma entry is on record as “suppress recurrence of hepatoma”, the safety result is recorded as “high safety” and the “survival rate of the patients” value was “increased survival rate of the patients”.
